In assay [1] the target is T1, Bromodomain-containing protein 4 (Homo sapiens, UniProt O60885). The experiment in a line: Binding affinity to modified phosphorylated human BRD4 phosphorylation-dependent interaction domain (598-785) expressed in Sf9 cells assessed as red fluorescence by SDS-PAGE method based one-bead binding assay.
Assay [2] has as its target T1, Bromodomain-containing protein 4. Kind of assay: Binding affinity to modified phosphorylated human BRD4 phosphorylation-dependent interaction domain (598-785) using fluorescein 5-maleimide by fluorescence polarization method.
The target is the same in assay [3]. The experiment in a line: Binding affinity to Flag tagged phosphorylated human BRD4 phosphorylation-dependent interaction domain (287-530) assessed as formation of cross-linking products at 0.5 uM in presence of sodium periodate using Neutravedin HRP by SDS-PAGE method.
The target is the same in assay [4]. Kind of assay: Binding affinity to Flag tagged phosphorylated human BRD4 phosphorylation-dependent interaction domain (287-530) assessed as formation of cross-linking products at 0.1 uM in presence of sodium periodate using Neutravedin HRP by SDS-PAGE method.
Assay [5] shares this target. The experiment in a line: Binding affinity to Flag tagged phosphorylated human BRD4 phosphorylation-dependent interaction domain (287-530) assessed as formation of cross-linking products at 0.5 uM in absence of sodium periodate using Neutravedin HRP by SDS-PAGE method.
The target is the same in assay [6]. The experiment in a line: Binding affinity to modified phosphorylated human BRD4 phosphorylation-dependent interaction domain (287-530) expressed in Sf9 cells assessed as formation of cross-linking products in presence of sodium periodate using Neutravedin HRP by Western blot method. (In general: In western blotting, separated proteins are transferred to a membrane and probed.)

Assay [7] has the same target. Kind of assay: Binding affinity to modified phosphorylated human BRD4 phosphorylation-dependent interaction domain (287-530) expressed in Sf9 cells assessed as formation of cross-linking products in absence of sodium periodate using Neutravedin HRP by Western blot method.

Molecules are shown by their SMILES. pKd: −log10 of the molar value. Active and inactive are the calls of the source. The rule behind the calls is not given here. Non-standard residues stand in square brackets, D forms with d. Residues, ends and D or L forms follow the SMILES beside them. Gly(N-(CH2)3N-pyrrolidone) = O=C(O)CNCCCN1CCCC1=O; N(4-hydroxyphenethyl)Gly = O=C(O)CNCCc1ccc(O)cc1; NFurfurylGly = O=C(O)CNCc1ccco1; Nleu = CC(C)CNCC(=O)O; Nlys = NCCCCNCC(=O)O; Nme = COCCNCC(=O)O

As to `COCCN(CC(=O)N(CCCCN)CC(=O)N(CCCCN)CC(N)=O)C(=O)CN(CCCCN)C(=O)CN(CCc1ccc(O)cc1)C(=O)CNCC(C)C` (H-[Nleu][N(4-hydroxyphenethyl)Gly][Nlys][Nme][Nlys][Nlys]-NH2), the result in assay [1] was inactive. This molecule gave a pKd in assay [2] of 4.30.
On to `CC(C)CN(CC(=O)N(CCCCN)CC(=O)N(CC(=O)N(CCCCN)CC(=O)N(CCCCN)CC(N)=O)Cc1ccco1)C(=O)CNCCCN1CCCC1=O` (H-[Gly(N-(CH2)3N-pyrrolidone)][Nleu][Nlys][NFurfurylGly][Nlys][Nlys]-NH2), for which the result in assay [1] was Active.
Turning to `COCCN(CC(=O)N(CCCCN)CC(=O)N(CCCCN)CC(=O)NC(Cc1ccc(O)c(O)c1)C(=O)N[C@H](CCC(=O)NCCCOCCOCCOCCCNC(=O)CCCC[C@@H]1SC[C@@H]2NC(=O)N[C@@H]21)C(N)=O)C(=O)CN(CCCCN)C(=O)CN(CCc1ccc(O)cc1)C(=O)CNCC(C)C` (stereo partly drawn), the result in assay [3] and in assay [6] was Active. Further, the result in assay [4], in assay [5] and in assay [7] was inactive.

As usually defined, the pKd is the Kd on a negative log10 scale, so that one unit is a factor of ten.
